In ChEMBL document CHEMBL1201862, “PubChem BioAssay data set” (2004):
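In this assay, cells in 96-well plates receive the compound at five concentrations for 48 hours. Endpoints are linearly interpolated between the surrounding concentrations. At the GI50, growth is halved.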 Calls of active or inactive are those of the source. No stated cut-off is given here; in the data, active = GI50 up to about 1.1 µM and inactive = higher.

Legend:
Test in all cases: growth of human tumour cells (NCI), 48 h
ACHN = test system: ACHN
MDA-N = test system: MDA-N
PC-3 = test system: PC-3
SK-MEL-5 = test system: SK-MEL-5
U-251 = test system: U-251
OVCAR-4 = test system: OVCAR-4
786-0 = test system: 786-0
SNB-19 = test system: SNB-19
A549 = test system: A549
MDA-MB-435 = test system: MDA-MB-435
OVCAR-5 = test system: OVCAR-5
KM12 = test system: KM12
DU-145 = test system: DU-145
SK-OV-3 = test system: SK-OV-3
CAKI-1 = test system: CAKI-1
NCI-H226 = test system: NCI-H226
CCRF-CEM = test system: CCRF-CEM
TK-10 = test system: TK-10
SF-268 = test system: SF-268
Hs-578T = test system: Hs-578T

Compound	GI50 (ACHN)	GI50 (MDA-N)	GI50 (PC-3)	GI50 (SK-MEL-5)	GI50 (U-251)	GI50 (OVCAR-4)	GI50 (786-0)	GI50 (SNB-19)	GI50 (A549)	GI50 (MDA-MB-435)	GI50 (OVCAR-5)	GI50 (KM12)	GI50 (DU-145)	GI50 (SK-OV-3)	GI50 (CAKI-1)	GI50 (NCI-H226)	GI50 (CCRF-CEM)	GI50 (TK-10)	GI50 (SF-268)	GI50 (Hs-578T)
COC(=O)C1=C(C(=O)OC)C(Cc2ccccc2)(OO)OC1=O (centres undefined)	2.99 µM (inactive)	4.03 µM (inactive)	13.1 µM (inactive)	4.26 µM (inactive)	12.8 µM (inactive)	16 µM (inactive)	2.95 µM (inactive)	22 µM (inactive)	27.4 µM (inactive)	3.52 µM (inactive)	18.8 µM (inactive)	19.1 µM (inactive)	23 µM (inactive)	29 µM (inactive)	4.82 µM (inactive)	5.46 µM (inactive)	1.04 µM (active)	3.4 µM (inactive)	–	–
CC(=O)NC(CCCOC(C)=O)C(=O)NC(CCCOC(C)=O)C(=O)NC(CCCOC(C)=O)C(=O)NC(Cc1ccc([N+](=O)[O-])cc1)C(=O)NCC(=O)OCc1ccccc1 (centres undefined)	> 100 µM (inactive)	–	> 100 µM (inactive)	> 100 µM (inactive)	> 100 µM (inactive)	> 100 µM (inactive)	> 100 µM (inactive)	> 100 µM (inactive)	> 100 µM (inactive)	> 100 µM (inactive)	> 100 µM (inactive)	> 100 µM (inactive)	> 100 µM (inactive)	> 100 µM (inactive)	> 100 µM (inactive)	> 100 µM (inactive)	> 100 µM (inactive)	> 100 µM (inactive)	> 100 µM (inactive)	> 100 µM (inactive)
Cc1ccccc1C1OC1C(=O)c1ccccc1N (centres undefined)	> 100 µM (inactive)	14.1 µM (inactive)	46.6 µM (inactive)	44.5 µM (inactive)	> 100 µM (inactive)	47.5 µM (inactive)	59.4 µM (inactive)	56.4 µM (inactive)	48 µM (inactive)	20.7 µM (inactive)	> 100 µM (inactive)	39.7 µM (inactive)	> 100 µM (inactive)	> 100 µM (inactive)	45.8 µM (inactive)	> 100 µM (inactive)	> 100 µM (inactive)	> 100 µM (inactive)	> 100 µM (inactive)	–
O=c1[nH]cc(NCCCl)c(=O)[nH]1	> 100 µM (inactive)	> 100 µM (inactive)	> 100 µM (inactive)	> 100 µM (inactive)	> 100 µM (inactive)	> 100 µM (inactive)	> 100 µM (inactive)	> 100 µM (inactive)	> 100 µM (inactive)	> 100 µM (inactive)	> 100 µM (inactive)	> 100 µM (inactive)	> 100 µM (inactive)	> 100 µM (inactive)	> 100 µM (inactive)	> 100 µM (inactive)	> 100 µM (inactive)	> 100 µM (inactive)	> 100 µM (inactive)	–
O=C(Nc1ccc(Cl)c(C(F)(F)F)c1)C(=O)c1c(O)c2ccccc2oc1=O	> 100 µM (inactive)	> 100 µM (inactive)	> 100 µM (inactive)	> 100 µM (inactive)	> 100 µM (inactive)	> 100 µM (inactive)	> 100 µM (inactive)	> 100 µM (inactive)	> 100 µM (inactive)	> 100 µM (inactive)	> 100 µM (inactive)	> 100 µM (inactive)	–	> 100 µM (inactive)	> 100 µM (inactive)	> 100 µM (inactive)	> 100 µM (inactive)	> 100 µM (inactive)	> 100 µM (inactive)	> 100 µM (inactive)
